Measurements reported in US10251937B2, “Retro-inverso analogs of spadin display increased antidepressant effects” (MEDINCELL, priority 2014, dated 2019).
Square brackets hold non-standard residues; d marks the D form. Peptide text beside a SMILES is read from it.

Assays:
TREK-1 channels = biological target: T1, TREK-1 channels (Homo sapiens, UniProt O95069); experiment: TREK-1 current inhibition, whole cell patch clamp on h-TREK-1/HEK cell line; assay type: cell-based
T1 construct: expressed in transfected cells
T1 sequence (O95069 1-426): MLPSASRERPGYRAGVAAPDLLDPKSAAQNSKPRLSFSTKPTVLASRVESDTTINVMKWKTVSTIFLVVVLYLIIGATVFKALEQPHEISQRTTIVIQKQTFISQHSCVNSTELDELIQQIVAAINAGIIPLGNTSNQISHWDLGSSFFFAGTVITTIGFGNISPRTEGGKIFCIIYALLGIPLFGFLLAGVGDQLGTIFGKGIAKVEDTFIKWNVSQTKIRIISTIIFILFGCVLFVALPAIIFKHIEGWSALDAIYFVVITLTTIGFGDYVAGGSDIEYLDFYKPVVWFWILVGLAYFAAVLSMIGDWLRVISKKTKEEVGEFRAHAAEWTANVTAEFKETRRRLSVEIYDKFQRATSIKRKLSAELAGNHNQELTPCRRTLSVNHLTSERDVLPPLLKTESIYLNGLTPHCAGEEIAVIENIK
Protocol: The human-TREK-1/HEK293 cell line (h-TREK-1/HEK) (Moha ou Maati, H. et al. (2011). PloS one, 6 (10), e25602) and HEK-IKS cell line (Ducroq, J. et al, (2010) Br J Pharmacol, 159(1):93-101) were grown in the presence of 0.5 mg/mL G418 in Dulbecco's modified Eagle's medium supplemented with 10% (v/v) heat inactivated fetal bovine serum containing 1% (v/v) penicillin/streptomycin in an atmosphere of 95% air/5% CO2.
All electrophysiological experiments were performed on h-TREK-1/HEK cells seeded at a density of 20 000 cells/35-mm dish after 2-6 days of culture. All electrophysiological recordings were performed in whole cell configuration of the patch clamp technique. Each current was evaluated by using a RK 400 patch clamp amplifier (Axon Instrument, USA), low-pass filtered at 3 kHz and digitized at 10 kHz using a 12-bit analog-to-digital converter digidata (1322 series, Axon Instrument, USA). All current amplitudes are expressed in current densities. Results were expressed as mean±standard error of the mean (SEM). […] The bath solution contained 150 mM NaCl, 5 mM KCl, 3 mM MgCl2, 1 mM CaCl2 and 10 mM HEPES adjusted to pH 7.4 with NaOH. The pipette solution contained 155 mM KCl, 3 mM MgCl2, 5 mM EGTA and 10 mM HEPES adjusted to pH 7.2 with KOH. TREK-1 currents were evaluated in the presence of a cocktail of potassium channel inhibitors (K+ blockers: 3 mM 4-aminopyridine (4-AP), 10 mM tetraethylammonium (TEA), 10 μM glibenclamide, 100 nM apamin and 50 nM charybdotoxin). All experiments were performed at room temperature (21-22° c.). Stimulation protocols and data acquisition were carried out using a microcomputer (Dell Pentium) with a commercial software and hardware (pClamp 8.2). Currents were recorded by voltage clamp steps to membrane potentials of −100 to +60 mV in 20 mV steps applied from a holding potential of −80 mV. Duration of depolarization pulses were […], and the pulse cycling rate was 5 sec. TREK-1 current amplitudes were evaluated at the end of the stimulation pulses. Cells were continuously superfused with a microperfusion system. Inhibitory effects of spadin and analogs were performed on arachidonic acid pre-activated TREK-1 currents. Spadin and analogs were tested at the unique dose of 100 nM. For both Analog 3 (SEQ ID:4) and Analog 8 (SEQ ID:9) concentration-dependant inhibitions were performed by applying concentrations ranging between 1 nM to 1 μM. IKS currents were activated by voltage clamp steps of membrane potentials from −100 to +100 mV in 20 mV steps applied from a holding potential of −80 mV. Tail currents were generated by repolarization to −40 mV. Duration of both depolarization and repolarization pulses were 2.4 s, and the pulse cycling rate was 10 s. IKR currents were activated by voltage clamp steps of membrane potentials from −100 to +100 mV in 10 mV steps applied from a holding potential of […] and tail currents were generated by a repolarization to […]. Duration of both depolarization and repolarization pulses were 1 s, and the pulse cycling rate was 5 s. The amplitudes of IKS and IKR currents were calculated at both the end of the first pulse and the peak of the tail pulse.
Neuropharmacology 62, 278, (2012)) was used as reference.

C57Bl/6J mice [1] = experiment: Novelty Suppressed Feeding (NSF) test; assay type: in vivo; details: 10 μg/kg i.v. daily for 4 days, test on day 5
Protocol: Stock solutions were prepared of 2 mg/mL (10^-3M) in distilled water, and before injection spadin solution was diluted in NaCl 0.9% to obtain the different concentrations used for treatments. Corticosterone (Sigma-Aldrich, France) was dissolved in drinking water at the concentration of 3.5 mg/L in the presence of 4.5 g/L of beta-cyclodextrin. […] Fluoxetine (Sigma-Aldrich, France) was dissolved in drinking water at the dose of 80 mg/L and administered during 21 days. For i.p. administration, fluoxetine (TEVA Santé, France) was dissolved in NaCl 0.9% at a concentration of 0.75 mg/mL. The amount injected was 3 mg/kg. Spadin and analogues were administered by i.v. injection. For acute treatment, drugs were administered in a single 100 μL bolus 30 min prior to the beginning of the behavioral tests. For subchronic treatment drugs were injected during 4 consecutive days and behavioral tests were performed on day 5, without additional injection.
The NSF paradigm is a two day test protocol. Day one, mice were deprived from food. Day two mice were placed in a highly brightly lit area, in a plastic box (45×45×20 cm), with a floor covered with wooden bedding. The test was carried out during a 10 min period; during this time the latency to eat was measured. During the test a single pellet of food was placed in the center of the box, on a white platform.

C57Bl/6J mice [2] = experiment: Seizure induced by kainate; assay type: in vivo; details: for effect against epilepsy seizure triggered by kainate: kainate 25 mg/Kg
Protocol: Kainate solutions were prepared in a solution of 140 mM NaCl (saline solution). […] Mice (n=10 per group) were monitored during 2 h for onset and extent of seizures. Six levels of seizure severity were defined as follows: 1—immobility, 2—head/neck movements, 3—clonic unilateral activity, 4—clonic bilateral activity, 5—generalized convulsions, and 6—death. Seizure severity was blindly scored (Moha ou Maati, H. et al. A human TREK-1/HEK cell line: a highly efficient screening tool for drug development in neurological diseases. PLoS One 6, e25602, (2011)). The seizure index was calculated by averaging the points for seizure activity in each group (n=10 per treatment).

CC[C@@H](C)[C@@H](NC(=O)CNC(=O)[C@H](NC(=O)[C@@H](CO)NC(=O)[C@@H](Cc1c[nH]c2ccccc12)NC(=O)CNC(=O)[C@@H](CC(C)C)NC(=O)[C@@H](CCCNC(=N)N)NC(C)=O)C(C)C)C(=O)N1CCC[C@@H]1C(=O)NCC(=O)N[C@H](CO)C(=O)N[C@H](Cc1c[nH]c2ccccc12)C(=O)N[C@H](CCCNC(=N)N)C(=O)N1CCC[C@@H]1C(=O)N[C@H](CC(C)C)C(=O)N1CCC[C@@H]1C(=O)N[C@H](C)C(N)=O [Analog 3, Ac-rlGwsvGipGswrplpa-NH2] (Ac-[dR][dL]G[dW][dS][dV]G[dI][dP]G[dS][dW][dR][dP][dL][dP][dA]-NH2) was tested, and the “blockade effect on TREK-1 channel activity compared to spadin” value (TREK-1 channels; 100 nM, n=10 to 12) was “increased blockade effect”, the “higher affinity for TREK-1 channels than spadin” value (TREK-1 channels; compared to spadin IC50) was 6 fold and the “latency to feed, NSF” value (C57Bl/6J mice [1]) was 143.88 ± 23.42 s. The “effect against epilepsy seizure triggered by kainate” value (C57Bl/6J mice [2]; 1 μg/Kg i.v.) was “no protective effect”, the “effect against epilepsy seizure triggered by kainate” value (C57Bl/6J mice [2]; 10 μg/Kg i.v.) was “important protective effect” and the “mice among 10 that reached the two less severe stages of epilepsy seizures (immobility, head or neck movements)” value (C57Bl/6J mice [2]; 10 μg/Kg i.v., kainate 25 mg/Kg i.p.) was “two”.
